Reference: patent US11247965B2 (VenatoRx Pharmaceuticals, Inc., priority 2017, dated 2022)

What was measured:
[1] = test system: HBV replication in HepAD38 cells; experiment: Anti-HBV activity in HepAD38 cells, extracellular HBV DNA by QPCR; assay type: cell-based, HBV (genotype D, serotype ayw); conditions: Hepatitis B virus, HePAD38, 168 h, read-out: Anti-HBV EC50, HepAD38 cells, extracellular HBV DNA by QPCR, 7 days of incubation
Outline: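 HepAD38 cells (HepG2 with tet-repressible HBV genotype D genome) seeded overnight, tetracycline removed, then treated 7 days with compounds (half-log dilutions, 30 μM–10 nM; 1:200 from DMSO). Supernatant HBV DNA quantified by QPCR against standard curve; % inhibition vs vehicle, EC50 by 4-parameter fit.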

[2] = In vitro cytotoxicity, MTT cell viability assay in HepG2 cells; assay type: cell-based; conditions: human, Cytotoxicity CC50
Outline: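 HepG2 cells incubated 7 days at 37 °C, 5% CO2 with compounds from 30 μM to 1.0 nM (8 half-log dilutions). Viability read as MTT formazan absorbance at 492 nm, normalised to vehicle controls; CC50 from 4-parameter non-linear regression.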

Row | SMILES | EC50 [1] [µM] | CC50 at 7 days [2] [µM]
1 | CC(=O)Nc1nc2c(s1)CN(C(=O)C(F)(F)c1cc(C(=O)Nc3ccc(F)c(C)c3)ccc1F)CC2 [Example 288, 3-(2-(2-acetamido-6,7-dihydrothiazolo[5,4-c]pyridin-5(4H)-yl)-1,1-difluoro-2-oxoethyl)-4-fluoro-N-(4-fluoro-3-methylphenyl)benzamide] | < 5 | 5 to 30
2 | Cc1cc(NC(=O)c2ccc(F)c(C(F)(F)C(=O)N3CCc4[nH]c(=O)oc4C3)c2)ccc1F [Example 289, 3-(1,1-difluoro-2-oxo-2-(2-oxo-1,4,6,7-tetrahydrooxazolo[5,4-c]pyridin-5(2H)-yl)ethyl)-4-fluoro-N-(4-fluoro-3-methylphenyl)benzamide] | < 5 | 5 to 30
3 | Cc1cc(NC(=O)c2ccc(F)c(C(F)(F)C(=O)N3[C@H](C)CN(S(=O)(=O)c4cccnc4)C[C@@H]3C)c2)ccc1F [Example 290, 3-(2-((2S,6R)-2,6-dimethyl-4-(pyridin-3-ylsulfonyl)piperazin-1-yl)-1,1-difluoro-2-oxoethyl)-4-fluoro-N-(4-fluoro-3-methylphenyl)benzamide] | < 5 | 5 to 30
4 | CNS(=O)(=O)N1C[C@@H](C)N(C(=O)C(F)(F)c2cc(C(=O)Nc3ccc(F)c(C)c3)ccc2F)[C@@H](C)C1 [Example 291, 3-(2-((2S,6R)-2,6-dimethyl-4-(N-methylsulfamoyl)piperazin-1-yl)-1,1-difluoro-2-oxoethyl)-4-fluoro-N-(4-fluoro-3-methylphenyl)benzamide] | < 5 | 5 to 30
5 | Cc1cc(NC(=O)c2ccc(F)c(C(F)(F)C(=O)N3[C@H](C)CN(S(=O)(=O)C4CC4)C[C@@H]3C)c2)ccc1F [Example 292, 3-(2-((2S,6R)-4-(cyclopropylsulfonyl)-2,6-dimethylpiperazin-1-yl)-1,1-difluoro-2-oxoethyl)-4-fluoro-N-(4-fluoro-3-methylphenyl)benzamide] | < 5 | 5 to 30
6 | Cc1cc(NC(=O)c2ccc(F)c(C(F)(F)C(=O)N3[C@H](C)CN(S(C)(=O)=O)C[C@@H]3C)c2)ccc1F [Example 293, 3-(2-((2S,6R)-2,6-dimethyl-4-(methylsulfonyl)piperazin-1-yl)-1,1-difluoro-2-oxoethyl)-4-fluoro-N-(4-fluoro-3-methylphenyl)benzamide] | < 5 | 5 to 30
7 | CC(=O)N1C[C@@H](C)N(C(=O)C(F)(F)c2cc(C(=O)Nc3ccc(F)c(C)c3)ccc2F)[C@@H](C)C1 [Example 294, 3-(2-((2S,6R)-4-acetyl-2,6-dimethylpiperazin-1-yl)-1,1-difluoro-2-oxoethyl)-4-fluoro-N-(4-fluoro-3-methylphenyl)benzamide] | < 5 | 5 to 30
8 | CC(=O)N1[C@H](C)CN(C(=O)C(F)(F)c2cc(C(=O)Nc3ccc(F)c(C)c3)ccc2F)C[C@@H]1C [Example 295, 3-(2-((3R,5S)-4-acetyl-3,5-dimethylpiperazin-1-yl)-1,1-difluoro-2-oxoethyl)-4-fluoro-N-(4-fluoro-3-methylphenyl)benzamide] | < 5 | 5 to 30
9 | Cc1cc(NC(=O)c2ccc(F)c(C(F)(F)C(=O)N3C[C@@H](C)N[C@@H](C)C3)c2)ccc1F [Example 296, 3-(2-((3R,5S)-3,5-dimethylpiperazin-1-yl)-1,1-difluoro-2-oxoethyl)-4-fluoro-N-(4-fluoro-3-methylphenyl)benzamide] | < 5 | 5 to 30
10 | Cc1cc(NC(=O)c2ccc(F)c(C(F)(F)C(=O)N3CCn4nncc4C3)c2)ccc1F [Example 297, 3-(2-(6,7-dihydro-[1,2,3]triazolo[1,5-a]pyrazin-5(4H)-yl)-1,1-difluoro-2-oxoethyl)-4-fluoro-N-(4-fluoro-3-methylphenyl)benzamide] | < 5 | 5 to 30
11 | Cc1cc(NC(=O)c2ccc([N+](=O)[O-])c(C(F)(F)C(=O)N3CCC(O)CC3)c2)ccc1F [Example 298, 3-(1,1-difluoro-2-(4-hydroxypiperidin-1-yl)-2-oxoethyl)-N-(4-fluoro-3-methylphenyl)-4-nitrobenzamide] | < 5 | 5 to 30
12 | Cc1cc(NC(=O)c2ccc(N)c(C(F)(F)C(=O)N3CCC(O)CC3)c2)ccc1F [Example 299, 4-amino-3-(1,1-difluoro-2-(4-hydroxypiperidin-1-yl)-2-oxoethyl)-N-(4-fluoro-3-methylphenyl)benzamide] | < 5 | 5 to 30
13 | Cc1cc(NC(=O)c2ccc(F)c(C(F)(F)C(=O)N3CCC(O)CC3)n2)ccc1F [Example 300, 6-(1,1-difluoro-2-(4-hydroxypiperidin-1-yl)-2-oxoethyl)-5-fluoro-N-(4-fluoro-3-methylphenyl)picolinamide] | < 5 | 5 to 30
14 | Cc1cc(NC(=O)c2ccc(F)c(C(F)(F)C(=O)N3CCC(NC(=O)CN4CCC(O)CC4)C(C)(C)C3)c2)ccc1F (stereo not shown) [Example 301, 3-(1,1-difluoro-2-(4-(2-(4-hydroxypiperidin-1-yl)acetamido)-3,3-dimethylpiperidin-1-yl)-2-oxoethyl)-4-fluoro-N-(4-fluoro-3-methylphenyl)benzamide] | < 5 | 5 to 30
15 | CNCC(=O)NC1CCN(C(=O)C(F)(F)c2nc(C(=O)Nc3ccc(F)c(C)c3)ccc2F)CC1(C)C (stereo not shown) [Example 302, 6-(2-(3,3-dimethyl-4-(2-(methylamino)acetamido)piperidin-1-yl)-1,1-difluoro-2-oxoethyl)-5-fluoro-N-(4-fluoro-3-methylphenyl)picolinamide] | < 5 | 5 to 30
16 | Cc1cc(NC(=O)c2ccc(F)c(C(F)(F)C(=O)N3CCc4nc(N)sc4C3)n2)ccc1F [Example 303, 6-(2-(2-amino-6,7-dihydrothiazolo[5,4-c]pyridin-5(4H)-yl)-1,1-difluoro-2-oxoethyl)-5-fluoro-N-(4-fluoro-3-methylphenyl)picolinamide] | < 5 | 5 to 30
17 | Cc1cc(NC(=O)c2ccc(F)c(C(F)(F)C(=O)N3CCC(N)C(C)(C)C3)n2)ccc1F (stereo not shown) [Example 304, 6-(2-(4-amino-3,3-dimethylpiperidin-1-yl)-1,1-difluoro-2-oxoethyl)-5-fluoro-N-(4-fluoro-3-methylphenyl)picolinamide] | < 5 | 5 to 30
18 | CC(=O)NC1CCN(C(=O)C(F)(F)c2nc(C(=O)Nc3ccc(F)c(C)c3)ccc2F)CC1(C)C (stereo not shown) [Example 305, 6-(2-(4-acetamido-3,3-dimethylpiperidin-1-yl)-1,1-difluoro-2-oxoethyl)-5-fluoro-N-(4-fluoro-3-methylphenyl)picolinamide] | < 5 | 5 to 30
19 | Cc1cc(NC(=O)c2ccc(F)c(C(F)(F)C(=O)N3[C@@H]4COC[C@H]3C[C@H](NS(C)(=O)=O)C4)c2)ccc1F [Example 306, 3-(1,1-difluoro-2-((1R,5S,7r)-7-(methylsulfonamido)-3-oxa-9-azabicyclo[3.3.1]nonan-9-yl)-2-oxoethyl)-4-fluoro-N-(4-fluoro-3-methylphenyl)benzamide] | < 5 | 5 to 30
20 | COC(=O)N[C@@H]1C[C@H]2COC[C@@H](C1)N2C(=O)C(F)(F)c1cc(C(=O)Nc2ccc(F)c(C)c2)ccc1F [Example 307, methyl ((1R,5S,7r)-9-(2,2-difluoro-2-(2-fluoro-5-((4-fluoro-3-methylphenyl)carbamoyl)phenyl)acetyl)-3-oxa-9-azabicyclo[3.3.1]nonan-7-yl)carbamate] | < 5 | 5 to 30
